In JPH07118153A, “抗ウレアーゼ剤” (Eisai Co Ltd, priority 1993, dated 1995):

Experiments:
[1] = molecular target: T1, H. pylori-produced urease [H.pylori産生ウレアーゼ] (Helicobacter pylori, UniProt P69996); settings: cited from earlier work; for inhibition of H. pylori-produced urease: Antimicrobial Agents and Chemotherapy, 37(4), 769-774, 1993
Target sequence in this assay (P69996 whole entry): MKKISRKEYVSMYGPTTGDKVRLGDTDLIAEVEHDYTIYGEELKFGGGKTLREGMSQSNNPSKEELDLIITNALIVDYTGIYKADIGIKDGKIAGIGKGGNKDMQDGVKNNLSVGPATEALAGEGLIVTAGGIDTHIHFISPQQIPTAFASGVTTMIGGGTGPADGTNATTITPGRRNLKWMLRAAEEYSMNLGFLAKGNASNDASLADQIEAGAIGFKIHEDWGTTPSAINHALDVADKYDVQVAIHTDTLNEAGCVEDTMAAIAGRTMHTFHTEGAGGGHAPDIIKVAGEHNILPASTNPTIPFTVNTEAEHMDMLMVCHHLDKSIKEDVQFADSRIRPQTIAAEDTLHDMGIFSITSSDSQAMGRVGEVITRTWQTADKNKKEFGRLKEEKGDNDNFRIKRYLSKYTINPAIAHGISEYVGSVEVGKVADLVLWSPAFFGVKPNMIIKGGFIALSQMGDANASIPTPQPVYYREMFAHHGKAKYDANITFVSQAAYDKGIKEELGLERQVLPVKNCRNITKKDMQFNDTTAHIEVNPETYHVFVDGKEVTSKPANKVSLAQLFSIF
Target sequence in this assay (P14916 whole entry, further chain): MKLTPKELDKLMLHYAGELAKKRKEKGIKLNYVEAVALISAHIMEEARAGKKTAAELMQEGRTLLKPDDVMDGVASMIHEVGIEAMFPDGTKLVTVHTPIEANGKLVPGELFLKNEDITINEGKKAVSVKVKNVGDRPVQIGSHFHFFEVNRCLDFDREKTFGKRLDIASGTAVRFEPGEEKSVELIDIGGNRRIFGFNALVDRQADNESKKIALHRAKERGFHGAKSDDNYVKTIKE

[2] = molecular target: jack bean urease [なた豆ウレアーゼ] (Canavalia ensiformis, UniProt P07374); assay: Inhibition of jack bean urease (inhibition test example 1); format: biochemical; settings: from tables 2 and 4
Chain of jack bean urease [なた豆ウレアーゼ] (P07374 whole entry, looked up): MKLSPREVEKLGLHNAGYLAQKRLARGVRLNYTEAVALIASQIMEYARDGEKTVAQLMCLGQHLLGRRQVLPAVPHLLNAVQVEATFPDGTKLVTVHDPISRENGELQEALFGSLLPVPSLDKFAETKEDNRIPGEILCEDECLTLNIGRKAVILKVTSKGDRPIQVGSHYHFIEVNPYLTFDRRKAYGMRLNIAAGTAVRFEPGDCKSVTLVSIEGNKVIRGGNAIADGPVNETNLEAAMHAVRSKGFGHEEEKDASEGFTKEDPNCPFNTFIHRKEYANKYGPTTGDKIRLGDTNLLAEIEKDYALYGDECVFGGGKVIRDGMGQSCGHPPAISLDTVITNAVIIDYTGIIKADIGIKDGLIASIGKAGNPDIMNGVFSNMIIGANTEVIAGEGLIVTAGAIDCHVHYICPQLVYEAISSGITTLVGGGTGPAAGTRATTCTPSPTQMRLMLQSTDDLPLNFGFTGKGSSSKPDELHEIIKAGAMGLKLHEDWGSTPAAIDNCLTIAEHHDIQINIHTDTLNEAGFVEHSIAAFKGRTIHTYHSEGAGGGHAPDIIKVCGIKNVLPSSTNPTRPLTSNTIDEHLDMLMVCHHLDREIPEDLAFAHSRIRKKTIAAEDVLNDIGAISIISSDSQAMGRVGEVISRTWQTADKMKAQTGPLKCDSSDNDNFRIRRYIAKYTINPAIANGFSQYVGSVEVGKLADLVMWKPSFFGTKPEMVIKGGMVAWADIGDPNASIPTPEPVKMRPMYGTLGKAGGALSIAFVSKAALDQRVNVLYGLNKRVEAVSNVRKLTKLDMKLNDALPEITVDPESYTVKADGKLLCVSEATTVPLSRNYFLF

[3] = Acute toxicity test, single dose, intravenous and oral; format: in vivo, Slc:SD rats and Slc:ICR mice; settings: rats and mice
[4] = molecular target: T1, H. pylori-produced urease [H.pylori産生ウレアーゼ]; format: biochemical, Helicobacter pylori (ATCC43504)
Target sequence in this assay (P69996 whole entry, looked up): as the sequence (P69996 whole entry) above

[5] = system: a wide range of ureases [幅広い種類のウレアーゼ]; assay: Urease inhibition across ureases (tables 2 and 4 taken together); format: biochemical; settings: from tables 2 and 4

Compound: Cc1c(OCC(F)(F)F)ccnc1C[S+]([O-])c1nc2ccccc2[nH]1 (stereo not shown) [ランソプラゾール, 2−[3−メチル−4−(2,2,2−トリフルオロエトキシ)ピリジン−2−イル]メチルスルフィニル−1H−ベンズイミダゾール]
- inhibition of H. pylori-produced urease [1]: 阻害する
- anti-urease activity relative to acetohydroxamic acid ([1]; disclosed in Antimicrobial Agents and Chemotherapy, compared with acetohydroxamic acid): ~2 fold

Compound: COCCCOc1ccnc(C[S+]([O-])c2nc3ccccc3[nH]2)c1C (stereo not shown) [本発明化合物, 2−[4−(3−メトキシプロポキシ)−3−メチルピリジン−2−イル]メチルスルフィニル−1H−ベンズイミダゾール]
- inhibitory action on jack bean urease [2]: 阻害作用も有しており
- selectivity ratio ([3]; in vivo, intravenous and oral, multiple of the clinical dose by oral administration, read-out: LD50 values relative to the oral clinical dose): ≥ 5000
- safety ([3]; judged from LD50 values): 安全性は極めて高い
- H. pylori-produced urease inhibitory action [4]: 阻害作用を有している
- activity relative to control substance (times stronger) ([4]; H. pylori-produced urease, control substance acetohydroxamic acid): ~100 fold
- inhibitory activity on H. pylori-produced urease, compared with reference substances ([4]; versus acetohydroxamic acid, caprylohydroxamic acid, nicotinohydroxamic acid, benzohydroxamic acid, omeprazole and lansoprazole, from tables 2, 3 and 4): 優れた阻害活性を有する
- inhibitory action on a wide range of ureases [5]: 阻害作用を示した

Compound: COc1ccc2[nH]c([S+]([O-])Cc3ncc(C)c(OC)c3C)nc2c1 (stereo not shown) [オメプラゾール, 5−メトキシ−2−(4−メトキシ−3,5−ジメチルピリジン−2−イル)メチルスルフィニル−1H−ベンズイミダゾール]
- inhibition of H. pylori-produced urease [1]: 阻害する
